From patent US10464911B2, “1,3,4-oxadiazole sulfamide derivative compounds as histone deacetylase 6 inhibitor, and the pharmaceutical composition comprising the same” (Chong Kun Dang Pharmaceutical Corp., priority 2015, dated 2019) come the findings set out here.

Molecules are shown by their SMILES. Counter-ions that a name gives are not always drawn.

For this test, the target named is human recombinant HDAC6 (Homo sapiens (Human), UniProt Q9UBN7). Nature of the test: HDAC6 enzyme activity inhibition assay (HDAC Fluorimetric Drug Discovery Kit). Type of test: biochemical. The following applies: for HDAC6 selectivity (fold): HDAC6 versus HDAC1; for IC50: human recombinant HDAC6, same protocol as HDAC1 test. How it is done:
In order to examine the HDAC6 selectivity of the compounds of formula I of the present invention by HDAC1 and HDAC6 enzymatic activity inhibition assays, an experiment was performed using a conventional substance as a control.
HDAC enzyme activity was measured using a HDAC Fluorimetric Drug Discovery Kit (BML-AK511, 516, Enzo Life Science). For the HDAC1 enzyme activity test, human recombinant HDAC1 (BML-SE456) was used as an enzyme source, and Fluor de Lys®-“SIRT1 (BNL-KI177) was used as a substrate. A 5-fold dilution of the compound was seeded into a 96-well plate, and then 0.3 μg of the enzyme and 10 μM of the substrate were added to each well of the plate and allowed to react at 30 for 60 minutes. Then, Fluor de Lys®-Developer II (BML-KI176) was added thereto and allowed to react for 30 minutes, after which the fluorescence value (Ex 360, Em 460) was measured using a multi-plate reader (Flexstation 3, Molecular Device). The HDAC6 enzyme was tested using human recombinant HDAC6 (382180) (Calbiochem) according to the same protocol as the HDAC1 enzyme activity test method. Based on the resulting values, each IC50 value was calculated using GraphPad Prism4.0 program.

Sequence of human recombinant HDAC6 (Q9UBN7 whole entry): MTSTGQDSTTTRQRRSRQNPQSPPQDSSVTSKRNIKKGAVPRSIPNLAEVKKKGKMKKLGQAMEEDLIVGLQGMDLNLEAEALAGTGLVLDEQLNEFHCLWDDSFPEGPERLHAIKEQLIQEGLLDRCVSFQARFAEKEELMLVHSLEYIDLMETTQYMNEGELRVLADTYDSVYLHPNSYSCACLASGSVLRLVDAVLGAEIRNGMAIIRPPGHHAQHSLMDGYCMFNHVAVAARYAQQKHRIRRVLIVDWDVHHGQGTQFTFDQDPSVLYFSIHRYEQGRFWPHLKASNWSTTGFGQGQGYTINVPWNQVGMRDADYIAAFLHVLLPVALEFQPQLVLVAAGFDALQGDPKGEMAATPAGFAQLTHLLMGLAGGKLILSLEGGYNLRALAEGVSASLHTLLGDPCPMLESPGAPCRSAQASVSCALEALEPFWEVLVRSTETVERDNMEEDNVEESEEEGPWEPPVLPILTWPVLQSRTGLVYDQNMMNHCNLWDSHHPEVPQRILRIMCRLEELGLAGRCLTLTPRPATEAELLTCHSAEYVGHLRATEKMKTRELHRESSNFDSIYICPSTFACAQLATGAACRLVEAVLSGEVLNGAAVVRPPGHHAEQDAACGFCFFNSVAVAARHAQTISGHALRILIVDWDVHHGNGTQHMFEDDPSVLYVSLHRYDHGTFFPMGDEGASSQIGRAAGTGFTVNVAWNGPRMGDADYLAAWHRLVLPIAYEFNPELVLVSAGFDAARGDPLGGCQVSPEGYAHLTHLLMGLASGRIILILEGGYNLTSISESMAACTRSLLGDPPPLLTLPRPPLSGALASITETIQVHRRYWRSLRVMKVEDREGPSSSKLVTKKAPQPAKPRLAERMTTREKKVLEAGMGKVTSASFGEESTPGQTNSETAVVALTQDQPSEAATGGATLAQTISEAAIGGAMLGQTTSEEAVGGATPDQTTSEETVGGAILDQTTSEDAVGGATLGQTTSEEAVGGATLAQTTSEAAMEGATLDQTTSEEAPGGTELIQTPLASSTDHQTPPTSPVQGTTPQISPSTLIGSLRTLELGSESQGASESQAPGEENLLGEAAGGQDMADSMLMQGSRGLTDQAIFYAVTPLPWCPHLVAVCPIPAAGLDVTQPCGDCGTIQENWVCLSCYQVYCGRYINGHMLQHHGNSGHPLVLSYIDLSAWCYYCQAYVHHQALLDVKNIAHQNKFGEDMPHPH

As for `O=S(=O)(N1CCNCC1)N(Cc1ccc(-c2nnc(C(F)F)o2)cc1F)c1cccnc1` [Compound 11317, N-(4-(5-(difluoromethyl)-1,3,4-oxadiazol-2-yl)-2-fluorobenzyl)-N-(pyridin-3-yl)piperazine-1-sulfonamide Dihydrochloride], the “HDAC6 selectivity (fold)” value was determined as 1234 fold and the IC50 was 0.081 µM.
Regarding `CC(=O)N1CCN(S(=O)(=O)N(Cc2ccc(-c3nnc(C(F)F)o3)cc2F)c2cccnc2)CC1` [Compound 11318, 4-acetyl-N-(4-(5-(difluoromethyl)-1,3,4-oxadiazol-2-yl)-2-fluorobenzyl)-N-(pyridin-3-yl)piperazine-1-sulfonamide], the “HDAC6 selectivity (fold)” value is on record as 2299 fold and the IC50 worked out at 0.043 µM.
Turning to `CS(=O)(=O)N1CCN(S(=O)(=O)N(Cc2ccc(-c3nnc(C(F)F)o3)cc2F)c2cccnc2)CC1` [Compound 11319, N-(4-(5-(difluoromethyl)-1,3,4-oxadiazol-2-yl)-2-fluorobenzyl)-4-(methylsulfonyl)-N-(pyridin-3-yl)piperazine-1-sulfonamide], the “HDAC6 selectivity (fold)” value is 1464 fold and the IC50 was found to be 0.068 µM.
With `CN1CCN(S(=O)(=O)N(Cc2ccc(-c3nnc(C(F)F)o3)cc2F)c2cccnc2)CC1` [Compound 11320, N-(4-(5-(difluoromethyl)-1,3,4-oxadiazol-2-yl)-2-fluorobenzyl)-4-methyl-N-(pyridin-3-yl)piperazine-1-sulfonamide], the “HDAC6 selectivity (fold)” value is on record as 1829 fold and the IC50 turned out to be 0.055 µM.
Regarding `O=S(=O)(N1CCNCC1)N(Cc1ccc(-c2nnc(C(F)(F)F)o2)cc1F)c1cccnc1` [Compound 11321, N-(2-fluoro-4-(5-(trifluoromethyl)-1,3,4-oxadiazol-2-yl)benzyl)-N-(pyridin-3-yl)piperazine-1-sulfonamide Dihydrochloride], the “HDAC6 selectivity (fold)” value turned out to be 2249 fold and the IC50 came out at 0.044 µM.
Regarding `CC(=O)N1CCN(S(=O)(=O)N(Cc2ccc(-c3nnc(C(F)(F)F)o3)cc2F)c2cccnc2)CC1` [Compound 11322, 4-acetyl-N-(2-fluoro-4-(5-(trifluoromethyl)-1,3,4-oxadiazol-2-yl)benzyl)-N-(pyridin-3-yl)piperazine-1-sulfonamide], the “HDAC6 selectivity (fold)” value worked out at 1507 fold and the IC50 stood at 0.066 µM.
Consider `CN1CCN(S(=O)(=O)N(Cc2ccc(-c3nnc(C(F)F)o3)cn2)c2ccccc2)CC1` [Compound 11363, N-((5-(5-(difluoromethyl)-1,3,4-oxadiazol-2-yl)pyridin-2-yl)methyl)-4-methyl-N-phenylpiperazine-1-sulfonamide], for which the “HDAC6 selectivity (fold)” value is listed as 6863 fold and the IC50 came out at 0.015 µM.
On to `O=S(=O)(N1CCN(C2COC2)CC1)N(Cc1ccc(-c2nnc(C(F)F)o2)cc1F)c1ccccc1` [Compound 11379, N-(4-(5-(difluoromethyl)-1,3,4-oxadiazol-2-yl)-2-fluorobenzyl)-4-(oxetan-3-yl)-N-phenylpiperazine-1-sulfonamide], for which the “HDAC6 selectivity (fold)” value was 3846 fold and the IC50 was 0.026 µM.
With `O=S1(=O)CCN(S(=O)(=O)N(Cc2ccc(-c3nnc(C(F)F)o3)cn2)c2ccccc2)CC1` [Compound 11440, N-((5-(5-(difluoromethyl)-1,3,4-oxadiazol-2-yl)pyridin-2-yl)methyl)-N-phenylthiomorpholine-4-sulfonamide 1,1-dioxide], the “HDAC6 selectivity (fold)” value is on record as 5000 fold and the IC50 came out at 0.02 µM.
For `O=S(=O)(N1CCN(C2COC2)CC1)N(Cc1ccc(-c2nnc(C(F)F)o2)cn1)c1ccccc1` [Compound 11574, N-((5-(5-(difluoromethyl)-1,3,4-oxadiazol-2-yl)pyridin-2-yl)methyl)-4-(oxetan-3-yl)-N-phenylpiperazine-1-sulfonamide], in that order: 6250 fold and 0.016 µM.
The like results for `O=S(=O)(N1CCN(C2COC2)CC1)N(Cc1ccc(-c2nnc(C(F)F)o2)cc1)c1ccccc1` [Compound 11575, N-(4-(5-(difluoromethyl)-1,3,4-oxadiazol-2-yl)benzyl)-4-(oxetan-3-yl)-N-phenylpiperazine-1-sulfonamide] were, in that order, 2083 fold and 0.048 µM.
As for `CCN1[C@H](C)CN(S(=O)(=O)N(Cc2ccc(-c3nnc(C(F)F)o3)cc2)c2ccccc2)C[C@@H]1C` [Compound 11640, (3S,5R)—N-(4-(5-(difluoromethyl)-1,3,4-oxadiazol-2-yl)benzyl)-4-ethyl-3,5-dimethyl-N-phenylpiperazine-1-sulfonamide], the “HDAC6 selectivity (fold)” value amounted to 946 fold and the IC50 is 0.105 µM.
The like results for `CC(=O)N1[C@H](C)CN(S(=O)(=O)N(Cc2ccc(-c3nnc(C(F)F)o3)cc2)c2ccccc2)C[C@@H]1C` [Compound 11641, (3S,5R)-4-acetyl-N-(4-(5-(difluoromethyl)-1,3,4-oxadiazol-2-yl)benzyl)-3,5-dimethyl-N-phenylpiperazine-1-sulfonamide] were, in that order, 2989 fold and 0.033 µM.
Take `CCCN1[C@H](C)CN(S(=O)(=O)N(Cc2ccc(-c3nnc(C(F)F)o3)cc2)c2ccccc2)C[C@@H]1C` [Compound 11642, (3S,5R)—N-(4-(5-(difluoromethyl)-1,3,4-oxadiazol-2-yl)benzyl)-3,5-dimethyl-N-phenyl-4-propylpiperazine-1-sulfonamide]: the “HDAC6 selectivity (fold)” value amounted to 287 fold and the IC50 was found to be 0.348 µM.
For the compound `C[C@@H]1CN(S(=O)(=O)N(Cc2ccc(-c3nnc(C(F)F)o3)cc2)c2ccccc2)C[C@H](C)N1C` [Compound 11643, (3S,5R)—N-(4-(5-(difluoromethyl)-1,3,4-oxadiazol-2-yl)benzyl)-3,4,5-trimethyl-N-phenylpiperazine-1-sulfonamide], the “HDAC6 selectivity (fold)” value is listed as 1443 fold and the IC50 came to 0.069 µM.
Consider `C[C@@H]1CN(S(=O)(=O)N(Cc2ccc(-c3nnc(C(F)F)o3)cc2)c2ccccc2)C[C@H](C)N1C(=O)C(F)F` [Compound 11644, (3S,5R)-4-(2,2-difluoroacetyl)-N-(4-(5-(difluoromethyl)-1,3,4-oxadiazol-2-yl)benzyl)-3,5-dimethyl-N-phenylpiperazine-1-sulfonamide], for which the “HDAC6 selectivity (fold)” value is 770 fold and the IC50 was determined as 0.13 µM.
In the case of `CC(C)N1CCN(S(=O)(=O)N(Cc2ccc(-c3nnc(C(F)F)o3)cc2)c2ccc(F)c(Cl)c2)CC1` [Compound 11651, N-(3-chloro-4-fluorophenyl)-N-(4-(5-(difluoromethyl)-1,3,4-oxadiazol-2-yl)benzyl)-4-iso propylpiperazine-1-sulfonamide], the “HDAC6 selectivity (fold)” value was found to be 207 fold and the IC50 is 0.481 µM.
Turning to `O=S(=O)(N1CCN(C2CCC2)CC1)N(Cc1ccc(-c2nnc(C(F)F)o2)cc1)c1ccc(F)c(Cl)c1` [Compound 11652, N-(3-chloro-4-fluorophenyl)-4-cyclobutyl-N-(4-(5-(difluoromethyl)-1,3,4-oxadiazol-2-yl)benzyl)piperazine-1-sulfonamide], the “HDAC6 selectivity (fold)” value was 422 fold and the IC50 was determined as 0.237 µM.
